The values below come from US20140364493A1, “METHOD OF INHIBITING REMNANT LIPOPROTEIN PRODUCTION” (Japan Tobacco Inc., priority 2003, published 2014).

Test [1] concerns cholesteryl ester transfer from donor lipoprotein to remnant lipoprotein. Description: Cholesteryl ester transfer from donor lipoprotein ([3H]CE-HDL3) to remnant lipoprotein fraction in plasma. The format is biochemical, human. The settings on record: [3H]CE-HDL3-containing plasma, 37° C. The procedure: (§1) Potassium bromide (KBr) was added to plasma (40 mL) of healthy subject and the mixture was adjusted to have a specific density d=1.125 g/mL. The mixture was subjected to density gradient centrifugation (227,000×g, 4° C., 17 hr) and a fraction showing a specific density of d>1.125 g/mL (HDL3 fraction) was harvested. The obtained fraction was dialyzed against PBS solution [10 mmol/L Na2HPO4; 10 mmol/L NaH2PO4; 0.15 mol/L NaCl; 1 mmol/L EDTA (pH 7.4)]. Then, tritium-labeled cholesterol (37 MBq) was dissolved in 95% ethanol, gradually added to the above-mentioned HDL3 fraction with stirring and incubated at 37° C. for 18 hr. [By this operation, tritium-labeled cholesterol was esterified by the action of lecithin cholesterol acyl transferase (LCAT) present on the HDL3 surface and taken up into HDL3 as tritium-labeled cholesteryl ester ([^3H]CE)]. After incubation, KBr was added, the mixture was adjusted to have a specific density d=1.21 g/mL, subjected to density gradient centrifugation (227,000×g, 4° C., 17 hr) and a fraction of specific density […] was harvested. The obtained fraction was dialyzed against the aforementioned PBS solution to give HDL3 incorporating [^3H]CE ([^3H]CE-HDL3, specific density: 1.125<d<1.21, specific activity: 22,000-33,000 dpm/μL), which was used as a donor lipoprotein.
The donor lipoprotein obtained above was added to the plasma of healthy subject to prepare a [^3H]CE-HDL3-containing plasma (2,000-4,000 dpm/μL). Compound A, Compound B, Compound C and Compound D were dissolved in dimethyl sulfoxide (DMSO). A solution of each compound in DMSO (1 μL) or DMSO (1 μL), and the [^3H]CE-HDL3-containing plasma (100 μL) were added into a microtube. On the other hand, the monoclonal antibody was diluted with physiological saline and added into a microtube together with a diluted solution (5 μL) of the monoclonal antibody or physiological saline (5 μL), and [^3H]CE-HDL3 containing plasma (95 μL). […] After ice-cooling, a remnant fraction was harvested using “RLP-cholesterol “JIMRO II”” (manufactured by Japan Immunoresearch Laboratories Co., Ltd.), and the radioactivity in the fraction was measured with a liquid scintillation counter. The difference in the measured values from incubation of solvent alone at 4° C. and 37° C. was taken as a 100% cholesteryl ester transfer activity, and the percent of decrease in the measured values of incubation at 37° C. with the addition of each compound or the antibody was taken as percent inhibition of cholesteryl ester transfer.

Test [2] has as its system remnant lipoprotein production in plasma of healthy subject. Description: In vitro effect on remnant lipoprotein production in plasma (RLP-cholesterol JIMRO II). The format is biochemical, human. The settings on record: 37° C. The procedure: Compound A, Compound B, Compound C and Compound D were previously dissolved in dimethyl sulfoxide (DMSO). Plasma (200 μL) of healthy subject, and a solution (2 μL) of each compound in DMSO or DMSO (2 μL) were added into a microtube. On the other hand, a monoclonal antibody against human CETP was diluted with physiological saline and added into a microtube together with plasma (190 μL) of healthy subject and a diluted solution (10 μL) of the monoclonal antibody or physiological saline (10 μL). […] After ice-cooling, the cholesterol amount in the remnant fraction was measured using “RLP-cholesterol “JIMRO II”” (manufactured by Japan Immunoresearch Laboratories Co., Ltd.). The difference in the measured values from incubation of solvent alone at 4° C. and 37° C., namely, an increase in the remnant cholesterol was taken as a 100% production amount of remnant lipoprotein, and the percent of decrease in the measured values of incubation at 37° C. with the addition of each compound or the antibody was taken as percent inhibition of remnant lipoprotein production.

Test [3] concerns the target T1, CETP (Homo sapiens, UniProt P11597).
T1 construct: added to the plasma of healthy subject to prepare a [^3H]CE-HDL3-containing plasma; from tissue; host or cells: plasma of healthy subject
T1 sequence (P11597 18-493): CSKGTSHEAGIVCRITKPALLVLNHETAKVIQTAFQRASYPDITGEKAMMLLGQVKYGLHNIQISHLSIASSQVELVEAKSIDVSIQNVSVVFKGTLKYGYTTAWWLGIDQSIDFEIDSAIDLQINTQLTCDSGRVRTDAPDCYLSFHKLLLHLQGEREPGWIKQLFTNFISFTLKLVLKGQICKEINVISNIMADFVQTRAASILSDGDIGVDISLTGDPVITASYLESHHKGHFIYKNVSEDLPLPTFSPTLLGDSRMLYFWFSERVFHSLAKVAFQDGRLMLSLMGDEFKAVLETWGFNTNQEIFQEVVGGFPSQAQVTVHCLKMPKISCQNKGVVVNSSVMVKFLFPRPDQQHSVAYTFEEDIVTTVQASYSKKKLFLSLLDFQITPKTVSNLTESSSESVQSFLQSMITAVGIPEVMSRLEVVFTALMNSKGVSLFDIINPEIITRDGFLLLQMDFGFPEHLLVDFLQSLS
Description: CETP activity in [3H]CE-HDL3-containing plasma (radioactivity in HDL fraction). The format is biochemical. The note with it: 37° C. As to the method:
as §1
The donor lipoprotein obtained above was added to the plasma of healthy subject to prepare a [^3H]CE-HDL3-containing plasma (2,000-4,000 dpm/μL). […] A solution of each compound in DMSO (1 μL) or DMSO (1 μL), and the [^3H]CE-HDL3-containing plasma (100 μL) were added into a microtube. On the other hand, the monoclonal antibody was diluted with physiological saline and added into a microtube together with a diluted solution (5 μL) of the monoclonal antibody or physiological saline (5 μL), and [^3H]CE-HDL3 containing plasma (95 μL). […] After ice-cooling, a remnant fraction was harvested using “RLP-cholesterol “JIMRO II”” (manufactured by Japan Immunoresearch Laboratories Co., Ltd.), and the radioactivity in the fraction was measured with a liquid scintillation counter. The difference in the measured values from incubation of solvent alone at 4° C. and 37° C. was taken as a 100% cholesteryl ester transfer activity, and the percent of decrease in the measured values of incubation at 37° C. with the addition of each compound or the antibody was taken as percent inhibition of cholesteryl ester transfer.
The CETP activity was measured according to the method shown below using a part of the same plasma after incubation. After ice-cooling, plasma (80 μL) was separated and a TBS solution [80 μL, 20 mmol/L Tris; 0.15 mol/L NaCl (pH 7.4)] containing 50 mmol/L magnesium chloride and 0.1% dextran sulfate was added to each microtube and thoroughly stirred. After standing at 4° C. for 30 min, the mixture was centrifuged (10,000×g, 4° C., 10 min.), and the radioactivity in the obtained supernatant (HDL fraction) was measured with a scintillation counter. The difference in the measured values from incubation of solvent alone at 4° C. and 37° C. was taken as a 100% CETP activity, and the percent of decrease in the measured values of incubation at 37° C. with the addition of each compound or the antibody was taken as percent inhibition of CETP activity. The above results are shown in the following.

As to `CCN(C[C@H]1CC[C@H](CC(=O)O)CC1)c1cc(C)c(C(F)(F)F)cc1CN(Cc1cc(C(F)(F)F)cc(C(F)(F)F)c1)c1nnn(C)n1.CS(=O)(=O)O` [Compound B, trans-(4-{[N-(2-{[N′-[3,5-bis(trifluoromethyl)benzyl]-N′-(2-methyl-2H-tetrazol-5-yl)amino]methyl}-5-methyl-4-trifluoromethylphenyl)-N-ethylamino]methyl}cyclohexyl)acetic acid methanesulfonate], the “Inhibition (%) of cholesteryl ester transfer to remnant fraction” value (“Inhibition (%) … to remnant fraction” below) in test [1] (0.01 μM, 4 hr) stood at 15%; in test [1] (0.03 μM, 4 hr) it was 26%; in test [1] (0.1 μM, 4 hr), 55%; in test [1] (0.3 μM, 4 hr), 89%; in test [1] (1 μM, 4 hr), 100%. The “Inhibition (%) of remnant lipoprotein production” value is on record as 29% in test [2] (0.01 μM, 4 hr); 36% in test [2] (0.03 μM, 4 hr); 42% in test [2] (0.1 μM, 4 hr); 52% in test [2] (0.3 μM, 4 hr); 84% in test [2] (1 μM, 4 hr). Moreover, the “Inhibition (%) of CETP activity” value in test [3] (0.01 μM, 4 hr) is reported as 10%; in test [3] (0.03 μM, 4 hr), 25%; in test [3] (0.1 μM, 4 hr), 53%; in test [3] (0.3 μM, 4 hr), 74%; in test [3] (1 μM, 4 hr), 86%.
Broadly, the inhibition is the relative decrease from the control value, in per cent. Take `CCN(CC1CCCC1)c1cc2c(cc1CN(Cc1cc(C#N)cc(C(F)(F)F)c1)C(=O)OC)CCC2` [Compound C, methyl (3-cyano-5-trifluoromethylbenzyl)-[6-(N-cyclopentylmethyl-N-ethylamino)indan-5-ylmethyl]-carbamate]: the “Inhibition (%) … to remnant fraction” value in test [1] (0.1 μM, 4 hr) is on record as −25%; in test [1] (0.3 μM, 4 hr), 9%; in test [1] (1 μM, 4 hr), 35%; in test [1] (3 μM, 4 hr), 92%. For the same compound, the “Inhibition (%) of remnant lipoprotein production” value was 21% in test [2] (0.1 μM, 4 hr); 34% in test [2] (0.3 μM, 4 hr); 41% in test [2] (1 μM, 4 hr); 93% in test [2] (3 μM, 4 hr). Moreover, the inhibition at 0.1 µM in test [3] (0.1 μM, 4 hr) is 6%. Also, the inhibition at 0.3 µM in test [3] (0.3 μM, 4 hr) stood at 12%. In test [3] (1 μM, 4 hr), the inhibition at 1 µM is 31%. Also, the inhibition at 3 µM in test [3] (3 μM, 4 hr) was determined as 57%.
`CCOC(=O)N1c2ccc(C(F)(F)F)cc2[C@@H](N(Cc2cc(C(F)(F)F)cc(C(F)(F)F)c2)C(=O)OC)C[C@H]1CC` [Compound D, ethyl (2R,4S)-4-[[3,5-bis(trifluoromethyl)benzyl](methoxycarbonyl)amino]-2-ethyl-6-(trifluoromethyl)-3,4-dihydroquinoline-1(2H)-carboxylic acid ester]: the “Inhibition (%) … to remnant fraction” value in test [1] (0.01 μM, 4 hr) is 12%; in test [1] (0.03 μM, 4 hr), 28%; in test [1] (0.1 μM, 4 hr) it was 54%; in test [1] (0.3 μM, 4 hr), 78%; in test [1] (1 μM, 4 hr), 94%. Also, the “Inhibition (%) of remnant lipoprotein production” value in test [2] (0.01 μM, 4 hr) is given as 38%; in test [2] (0.03 μM, 4 hr), 32%; in test [2] (0.1 μM, 4 hr), 44%; in test [2] (0.3 μM, 4 hr) it was 59%; in test [2] (1 μM, 4 hr), 62%.
As to `CCC(CC)CC1(C(=O)Nc2ccccc2SC(=O)C(C)C)CCCCC1` [Compound A, S-{2-([[1-(2-ethylbutyl)cyclohexyl]carbonyl]amino)phenyl}2-methylpropanethioate], the “Inhibition (%) … to remnant fraction” value in test [1] (3 μM, 6 hr) was 21%; in test [1] (10 μM, 6 hr), 29%; in test [1] (30 μM, 6 hr) it was 92%. The “Inhibition (%) of remnant lipoprotein production” value came to 25% in test [2] (3 μM, 6 hr); 54% in test [2] (10 μM, 6 hr); 77% in test [2] (30 μM, 6 hr). The “Inhibition (%) of CETP activity” value in test [3] (3 μM, 6 hr) was determined as 3%; in test [3] (10 μM, 6 hr) it was 34%; in test [3] (30 μM, 6 hr) it was 75%.
